Data as given in patent US20240391931A1 (Bristol-Myers Squibb Company, priority 2021, published 2024).

Tests used:
[1] = molecular target: T1, HER2 wildtype (WT) protein (Homo sapiens, UniProt P04626); assay: HER2 signaling (pHER2 Tyr1248/total HER2 MSD) in N87 cells; assay type: cell-based; details: 1.5 hr compound, 1% FBS
T1 construct: BT474 and N87 cell lines which endogenously overexpress the HER2 wildtype (WT) protein; endogenous in cells; host or cells: BT474, N87
Protocol: (§1) In addition to the engineered cell lines, the following cell lines were used: BT474 (human breast carcinoma), N87 (human gastric carcinoma), NCI-H1781 (human lung adenocarcinoma), and A431 (human epidermoid carcinoma); all cell lines were obtained from the American Type Culture Collection (ATCC, Manassas, VA). NCI-H1781 were grown in complete RPMI 1640 (Life Technologies, Carlsbad, CA) supplemented with 15% fetal bovine serum (FBS, Life Technologies, Carlsbad, CA) and 1% Penicillin-Streptomycin (P/S, Life Technologies, Carlsbad, CA). N87 cells were grown in complete RPMI 1640 supplemented with 10% FBS and 1% P/S. BT474 and A431 cells were grown in DMEM (Life Technologies, Carlsbad, CA) supplemented with 10% FBS and 1% P/S. All cells were maintained and propagated in a humidified 5% CO2 incubator at 37° C.
(§2) HER2 signaling was assessed in BT474 and N87 cell lines which endogenously overexpress the HER2 wildtype (WT) protein, in NCI-H1781 cells which endogenously expresses a HER2 mutant protein containing a VC insertion in the kinase domain (HER2VC or G776delinsVC), and in engineered cell lines transduced to express the Her2 mutant protein containing the YVMA insertion (Hek293-HER2YVMA and BEAS2B-HER2YVMA).
(§3) BT474, N87, and NCI-H1781 were plated in 96-well tissue-culture treated plates (Corning Costar, Sigma-Aldrich) in full media and incubated overnight. Hek293-HER2YVMA and BEAS2B-HER2YVMA cells were plated in 96-well poly-D-lysine treated plates (BD Bioscience, San Jose, CA). For treatment with test compounds, the media was replaced with corresponding low serum media (1% FBS) containing test compound at 1.1, 0.37, 0.12, 0.041, 0.014, 0.005, 0.0014, 0.0005 μM or DMSO control (0.1%). Cells were incubated with compound for 1.5 hr at 37° C. After compound treatment, the media was removed and cells were lysed for 30 min on ice in complete MSD lysis buffer (prepared using MSD base lysis buffer (Meso-Scale Discovery) supplemented with cOmplete, EDTA-free Protease inhibitor cocktail (Roche), Phosphatase Inhibitor Cocktails 2 and 3 (Sigma-Aldrich), and 1 mM PMSF (Sigma-Aldrich)). Lysates were stored at −70° C. until further analysis.
(§4) HER2 signaling was evaluated using phospho (Tyr1248)/total ErbB2 whole cell lysate MSD plates (Meso-Scale Discovery, Gaithersburg, MD). The phospho HER2 signal was normalized to total HER2 for each sample; results are reported as % DMSO control. The normalized data was fitted using a sigmoidal curve analysis program (Graph Pad Prism version 6) with variable Hill slope to determine EC50 values.
(§5) The HER2 signaling results are provided in Table 4, under columns titled “BT474-pHER2 EC50”, “N87-pHER2 EC50”, and “NCI-H1781-pHER2 EC50”. Hek293-HER2YVMA ins fall under the heading “HEKYVMA-pHER2 EC50”, Ba/F3 HER2YVMA fall under the heading “Ba/F3 YVMA-pHER2 EC50” and BEAS2B-HER2YVMA fall under the heading “BEAS2B YVMA-pHER2 EC50”.

HER2VC (G776delinsVC) = molecular target: T2, HER2VC (G776delinsVC) (Homo sapiens, UniProt P04626, G776C/INS775V); assay: HER2 signaling (pHER2) in NCI-H1781 cells; assay type: cell-based; details: 1.5 hr compound, 1% FBS
T2 construct: NCI-H1781 cells which endogenously expresses a HER2 mutant protein; endogenous in cells; host or cells: NCI-H1781
Protocol: as §1, §2, §3, §4, §5

N87 cells = assay: Cellular proliferation in N87 cells (CellTiter Glo); assay type: cell-based, human; details: 72 h
Protocol: as §1
(§6) Cell proliferation in adherent cells was investigated in two HER2 amplified cell lines (BT474, N87), and a HER2VC expressing cell line (NCI-H1781). BT474, NCI-H1781, and N87 were plated in their appropriate growth media supplemented with either 10% FBS (BT474, N87) or 15% FBS (NCI-H1781) and 1% P/S in 96-well white clear-bottom tissue culture plates (Costar, Sigma-Aldrich). The starting cell densities were 3500, 5500, and 5000 cells for BT474, NCI-H1781, and N87 cells, respectively. An 8-point standard curve with varying cell densities (starting at 50000 cells and serially diluting down 2-fold) was prepared for each cell line and read 6 h after plating. Cells were allowed to attach overnight prior to compound treatment. Compound solutions were prepared by serially diluting test compounds in DMSO (Sigma-Aldrich), then diluting 500× in their corresponding serum free media. Cells were treated by adding a 1:1 volume of test compound to a final concentration of […], 0.004, 0.0014, or 0.0005 μM, in 0.1% DMSO and 5% FBS (for BT474 and N87) or 7.5% FBS (NCI-H1781). In BT474 and NCI-H1781, cell media was replaced and cells were redosed with fresh test compound solutions after 72 h. Viability was determined by CellTiter Glo (Promega, Madison, WI) after 72 h for N87 cells, and after 120 h for BT474 and […] cells. The results were converted to cell numbers using a standard curve; growth inhibition (GI50 values) were determined by Graph Pad Prism. […] The results are provided in Table 4, under columns titled “BT474-GI50”, “N87-GI50”, and “NCI-H1781-GI50”.

BT474 cells = assay: Cellular proliferation in BT474 cells (CellTiter Glo); assay type: cell-based, human; details: 120 h, redosed after 72 h
Protocol: as §1, §6

NCI-H1781 cells = assay: Cellular proliferation in NCI-H1781 cells (CellTiter Glo); assay type: cell-based, human; details: 120 h, redosed after 72 h
Protocol: as §1, §6

[2] = Homo sapiens, BT-474, BT474 cells
[3] = Homo sapiens, NCI-H1781, NCI-H1781 cells

T1 sequence (P04626 23-1255): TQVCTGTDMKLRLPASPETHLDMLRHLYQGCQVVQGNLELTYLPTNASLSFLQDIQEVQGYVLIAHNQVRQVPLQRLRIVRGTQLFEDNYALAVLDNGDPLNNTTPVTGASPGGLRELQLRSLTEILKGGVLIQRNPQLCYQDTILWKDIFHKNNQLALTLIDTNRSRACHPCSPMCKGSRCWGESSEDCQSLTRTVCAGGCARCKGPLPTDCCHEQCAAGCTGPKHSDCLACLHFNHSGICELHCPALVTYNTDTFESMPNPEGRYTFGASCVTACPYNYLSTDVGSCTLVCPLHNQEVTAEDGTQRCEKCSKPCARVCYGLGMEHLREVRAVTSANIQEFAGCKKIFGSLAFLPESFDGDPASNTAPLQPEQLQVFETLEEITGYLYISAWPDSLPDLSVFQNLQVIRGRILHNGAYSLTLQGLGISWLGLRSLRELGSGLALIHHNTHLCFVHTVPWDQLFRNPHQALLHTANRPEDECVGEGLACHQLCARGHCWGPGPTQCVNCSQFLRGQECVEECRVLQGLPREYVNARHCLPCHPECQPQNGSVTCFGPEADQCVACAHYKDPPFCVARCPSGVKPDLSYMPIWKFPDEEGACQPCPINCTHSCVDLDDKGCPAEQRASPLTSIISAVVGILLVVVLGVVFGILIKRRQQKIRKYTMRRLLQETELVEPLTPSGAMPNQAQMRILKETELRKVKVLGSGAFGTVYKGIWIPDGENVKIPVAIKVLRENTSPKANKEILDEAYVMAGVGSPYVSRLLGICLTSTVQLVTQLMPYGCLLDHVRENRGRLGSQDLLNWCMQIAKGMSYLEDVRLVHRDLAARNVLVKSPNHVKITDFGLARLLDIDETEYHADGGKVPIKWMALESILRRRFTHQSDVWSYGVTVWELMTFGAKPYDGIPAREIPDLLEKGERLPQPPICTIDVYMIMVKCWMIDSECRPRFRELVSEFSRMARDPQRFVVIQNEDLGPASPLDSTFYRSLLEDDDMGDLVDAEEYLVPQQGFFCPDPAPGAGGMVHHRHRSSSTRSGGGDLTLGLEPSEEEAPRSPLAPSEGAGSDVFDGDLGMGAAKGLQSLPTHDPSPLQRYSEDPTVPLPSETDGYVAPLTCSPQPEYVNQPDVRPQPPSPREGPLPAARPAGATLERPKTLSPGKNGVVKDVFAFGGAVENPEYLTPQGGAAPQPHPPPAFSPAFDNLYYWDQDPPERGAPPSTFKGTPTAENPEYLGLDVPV
T2 sequence (P04626 with tags, fused parts or gaps INS775V/G776C): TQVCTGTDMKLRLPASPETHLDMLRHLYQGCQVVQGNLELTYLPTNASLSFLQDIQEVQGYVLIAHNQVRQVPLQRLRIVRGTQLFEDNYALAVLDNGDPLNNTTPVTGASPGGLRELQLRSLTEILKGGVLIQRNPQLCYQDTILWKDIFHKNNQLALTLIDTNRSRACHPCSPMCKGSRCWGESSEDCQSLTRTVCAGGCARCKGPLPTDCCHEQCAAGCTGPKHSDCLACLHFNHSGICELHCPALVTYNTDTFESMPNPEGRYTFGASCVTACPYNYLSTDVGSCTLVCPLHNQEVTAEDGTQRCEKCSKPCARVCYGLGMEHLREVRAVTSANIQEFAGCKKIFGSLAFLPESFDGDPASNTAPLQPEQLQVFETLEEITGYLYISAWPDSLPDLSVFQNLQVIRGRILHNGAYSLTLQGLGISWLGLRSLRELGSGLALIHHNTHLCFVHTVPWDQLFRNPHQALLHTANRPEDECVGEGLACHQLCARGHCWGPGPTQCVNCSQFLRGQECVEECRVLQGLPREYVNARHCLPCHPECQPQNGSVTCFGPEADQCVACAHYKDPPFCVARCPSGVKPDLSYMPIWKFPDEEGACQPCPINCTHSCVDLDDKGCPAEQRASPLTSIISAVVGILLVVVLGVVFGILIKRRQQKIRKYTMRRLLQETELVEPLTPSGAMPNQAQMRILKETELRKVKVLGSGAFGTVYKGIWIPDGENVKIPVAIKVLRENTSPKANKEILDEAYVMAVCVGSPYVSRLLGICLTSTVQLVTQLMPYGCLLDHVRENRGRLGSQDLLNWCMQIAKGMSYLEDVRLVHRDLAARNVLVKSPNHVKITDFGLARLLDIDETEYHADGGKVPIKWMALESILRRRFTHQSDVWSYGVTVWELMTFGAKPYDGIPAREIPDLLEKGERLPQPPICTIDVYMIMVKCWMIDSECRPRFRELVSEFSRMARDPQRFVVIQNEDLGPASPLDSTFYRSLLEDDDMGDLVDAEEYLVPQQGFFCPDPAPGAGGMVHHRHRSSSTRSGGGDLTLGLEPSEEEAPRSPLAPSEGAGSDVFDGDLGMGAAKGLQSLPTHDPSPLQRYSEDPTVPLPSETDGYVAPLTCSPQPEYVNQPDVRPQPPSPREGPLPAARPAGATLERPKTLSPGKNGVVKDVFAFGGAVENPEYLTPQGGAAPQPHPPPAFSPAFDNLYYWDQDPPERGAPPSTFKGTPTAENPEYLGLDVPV

| SMILES | EC50 (HER2VC (G776delinsVC)) | GI50 (BT474 cells; [2]) | GI50 (NCI-H1781 cells; [3]) | GI50 (N87 cells; Homo sapiens) | other results |
| --- | --- | --- | --- | --- | --- |
| C=CC(=O)N1[C@H](C)Cc2c(sc3ncnc(Nc4ccc(Oc5ccc(C)nc5)c(C)c4)c23)[C@H]1C (racemic) [Compound 166, 1-(6,8-trans-dimethyl-4-((3-methyl-4-((6-methylpyridin-3-yl)oxy)phenyl)amino)-5,8-dihydropyrido[4′,3′:4,5]thieno[2,3-d]pyrimidin-7(6H)-yl)prop-2-en-1-one] | – | – | – | – | EC50 [1]: < 100 nM |
| Cc1ccc(Oc2ccc(Nc3ncnc4sc5c(c34)CC(C)N(C(=O)C=CCN(C)C)C5C)cc2C)cn1 (single isomer, unassigned) [Compound 161] | – | – | – | – | EC50 [1]: < 100 nM |
| Cc1ccc(Oc2ccc(Nc3ncnc4sc5c(c34)CC(C)N(C(=O)C=CCN(C)C)C5C)cc2C)cn1 (single isomer, unassigned) [Compound 162] | – | – | – | – | EC50 [1]: 350 to 1000 nM |
| COc1cc(Nc2ncnc3sc4c(c23)CCN(C(=O)/C=C/CN(C)C)C4)ccc1Oc1ccccc1 [Compound 7, (E)-4-(dimethylamino)-1-(4-((3-methoxy-4-phenoxyphenyl)amino)-5,8-dihydropyrido[4′,3′:4,5]thieno[2,3-d]pyrimidin-7(6H)-yl)but-2-en-1-one] | < 100 nM | – | – | – | – |
| Cc1cc(Nc2ncnc3sc4c(c23)CCN(C(=O)/C=C/CN2CCOCC2)C4)ccc1Oc1ccc2ncnn2c1 [Compound 12] | – | – | – | – | EC50 [1]: < 100 nM |
| Cc1ccc(Oc2ccc(Nc3ncnc4sc5c(c34)CCN(C(=O)/C=C/CN3CC4CCC3C4)C5)cc2C)cn1 (centres unmarked) [Compound 14] | – | – | – | – | EC50 [1]: < 100 nM |
| Cc1ccc(Oc2ccc(Nc3ncnc4sc5c(c34)CCN(C(=O)/C=C/CN3CC[C@H](F)C3)C5)cc2C)cn1 [Compound 124] | – | < 100 nM | < 100 nM | < 100 nM | – |
| Cc1cc(Nc2ncnc3sc4c(c23)CCN(C(=O)/C=C/CN(C)C)C4)ccc1Oc1ccn2ccnc2c1 [Compound 126, (E)-4-(dimethylamino)-1-(4-((4-(imidazo[1,2-a]pyridin-7-yloxy)-3-methylphenyl)amino)-5,8-dihydropyrido[4′,3′:4,5]thieno[2,3-d]pyrimidin-7(6H)-yl)but-2-en-1-one] | – | < 100 nM | – | < 100 nM | GI50 (NCI-H1781 cells; Homo sapiens, NCI-H1781 cells): < 100 nM |
| Cc1nc2cc(Oc3ccc(Nc4ncnc5sc6c(c45)CCN(C(=O)/C=C/CN(C)C)C6)cc3C)ccn2n1 [Compound 127, (E)-4-(dimethylamino)-1-(4-((3-methyl-4-((2-methyl-[1,2,4]triazolo[1,5-a]pyridin-7-yl)oxy)phenyl)amino)-5,6-dihydropyrido[4′,3′:4,5]thieno[2,3-d]pyrimidin-7(8H)-yl)but-2-en-1-one] | – | < 100 nM | – | < 100 nM | GI50 (NCI-H1781 cells; Homo sapiens, NCI-H1781 cells): 100 to 350 nM |
| Cc1cc(Nc2ncnc3sc4c(c23)CCN(C(=O)/C=C/CN(C)C)C4)ccc1Oc1ccc(N(C)C)nc1 [Compound 158, (E)-4-(dimethylamino)-1-(4-((4-((6-(dimethylamino)pyridin-3-yl)oxy)-3-methylphenyl)amino)-5,8-dihydropyrido[4′,3′:4,5]thieno[2,3-d]pyrimidin-7(6H)-yl)but-2-en-1-one] | < 100 nM | < 100 nM | – | < 100 nM | GI50 (NCI-H1781 cells; Homo sapiens, NCI-H1781 cells): < 100 nM |

Continued, in another order:

| EC50 (HER2VC (G776delinsVC)) | GI50 (BT474 cells; [2]) | GI50 (NCI-H1781 cells; [3]) | SMILES | GI50 (N87 cells; Homo sapiens) | other results |
| --- | --- | --- | --- | --- | --- |
| 100 to 350 nM | – | – | Cc1ccc(Oc2ccc(Nc3ncnc4sc5c(c34)CN(C(=O)C=CCN(C)C)C5C)cc2C)cn1 (single isomer, unassigned) [Compound 170] | – | GI50 (N87 cells): 100 to 350 nM; GI50 (BT474 cells; BT474 cells): 100 to 350 nM; GI50 (NCI-H1781 cells; NCI-H1781 cells): 350 to 1000 nM |
| < 100 nM | – | – | C=CC(=O)N1CCc2c(sc3ncnc(Nc4ccc(Oc5cccnc5)c(Cl)c4)c23)C1 [Compound 6, 1-(4-((3-chloro-4-(pyridin-3-yloxy)phenyl)amino)-5,8-dihydropyrido[4′,3′:4,5]thieno[2,3-d]pyrimidin-7(6H)-yl)prop-2-en-1-one] | – | – |
| – | < 100 nM | < 100 nM | Cc1ccc(Oc2ccc(Nc3ncnc4sc5c(c34)CN(C(=O)/C=C/CN(C)C)CC5)cc2C)cn1 [Compound 108, (E)-4-(Dimethylamino)-1-(4-((3-methyl-4-((6-methylpyridin-3-yl)oxy)phenyl)amino)-7,8-dihydropyrido[3′,4′:4,5]thieno[2,3-d]pyrimidin-6(5H)-yl)but-2-en-1-one] | < 100 nM | – |
| – | < 100 nM | < 100 nM | Cc1ccc(Oc2ccc(Nc3ncnc4sc5c(c34)CCN(C(=O)/C=C/CN3CCC(O)C(C)(C)C3)C5)cc2C)cn1 (centres unmarked) [Compound 114] | < 100 nM | – |
| – | < 100 nM | < 100 nM | Cc1ccc(Oc2ccc(Nc3ncnc4sc5c(c34)CCN(C(=O)/C=C/CN3CC4CC4(CO)C3)C5)cc2C)cn1 (centres unmarked) [Compound 118] | < 100 nM | – |
| – | < 100 nM | < 100 nM | Cc1cc(Nc2ncnc3sc4c(c23)CN(C(=O)/C=C/CN(C)C)C4)ccc1Oc1ccn2ncnc2c1 [Compound 130, (E)-1-(4-((4-([1,2,4]Triazolo[1,5-a]pyridin-7-yloxy)-3-methylphenyl)amino)-5H-pyrrolo[3′,4′:4,5]thieno[2,3-d]pyrimidin-6(7H)-yl)-4-(dimethylamino)but-2-en-1-one] | < 100 nM | – |
| < 100 nM | < 100 nM | < 100 nM | COc1ccc(Oc2ccc(Nc3ncnc4sc5c(c34)C(C)CN(C(=O)/C=C/CN(C)C)C5)cc2C)cn1 (centres unmarked) [Compound 152, (E)-4-(dimethylamino)-1-(4-((4-((6-methoxypyridin-3-yl)oxy)-3-methylphenyl)amino)-5-methyl-5,8-dihydropyrido[4′,3′:4,5]thieno[2,3-d]pyrimidin-7(6H)-yl)but-2-en-1-one] | < 100 nM | – |
| < 100 nM | < 100 nM | 100 to 350 nM | COc1ccc(Oc2ccc(Nc3ncnc4sc5c(c34)CCN(C(=O)/C=C/CN3CCOCC3)C5)cc2C)cn1 [Compound 164] | < 100 nM | – |
| < 100 nM | – | 100 to 350 nM | Cc1ccc(Oc2ccc(Nc3ncnc4sc5c(c34)C(C)CN(C(=O)/C=C/CN3CCOCC3)C5)cc2C)cn1 (centres unmarked) [Compound 174, (E)-1-(5-Methyl-4-((3-methyl-4-((6-methylpyridin-3-yl)oxy)phenyl)amino)-5,6-dihydropyrido[4′,3′:4,5]thieno[2,3-d]pyrimidin-7(8H)-yl)-4-morpholinobut-2-en-1-one] | < 100 nM | – |
